In series [1] the test system is Crotalaria juncea. Description: Herbicidal tolerance in Crotalaria juncea (sunn hump) performance assessed as plant hight at 0.07 kg/ha post-emergence treatment measured after 2 weeks. The format is ADME, organism-based. The note with it: in vivo, other, 336 h.
Series [2] concerns Eragrostis cilianensis. As to the kind of experiment: Herbicidal activity against Eragrostis cilianensis (stinkgrass) in sunn hemp assessed as weed control at 0.07 kg/ha post-emergence treatment measured after 2 weeks. The format is functional.
The test system of series [3] is Cyperus esculentus. As to the kind of experiment: Herbicidal activity against Cyperus esculentus (yellow nutsedge) in sunn hemp assessed as weed control at 0.07 kg/ha post-emergence treatment measured after 2 weeks. The format is functional.
Series [4] has as its system Digitaria sanguinalis. As to the kind of experiment: Herbicidal activity against Digitaria sanguinalis (hairy crabgrass) in sunn hemp assessed as weed control at 0.07 kg/ha post-emergence treatment measured after 2 weeks. The format is functional.
Series [5] concerns Crotalaria juncea. Description: Herbicidal tolerance in Crotalaria juncea (sunn hump) performance assessed as stand count at 0.07 kg/ha post-emergence treatment measured after 2 weeks. The format is ADME, organism-based. The settings on record: in vivo, other, 336 h.
Series [6] deals with Crotalaria juncea. Description: Herbicidal tolerance in Crotalaria juncea (sunn hump) performance assessed as injury at 0.07 kg/ha post-emergence treatment measured after 2 weeks. The format is ADME, organism-based. The settings on record: in vivo, other, 336 h.
Series [7] deals with Eragrostis cilianensis. Description: Herbicidal activity against Eragrostis cilianensis (stinkgrass ) in sunn hemp assessed as weed control at 1.12 kg/ha post-emergence treatment measured after 2 weeks. The format is functional.
Series [8] deals with Digitaria sanguinalis. As to the kind of experiment: Herbicidal activity against Digitaria sanguinalis (hairy crabgrass) in sunn hemp assessed as weed control at 1.12 kg/ha post-emergence treatment measured after 2 weeks. The format is functional.
The subject of series [9] is Crotalaria juncea. As to the kind of experiment: Herbicidal tolerance in Crotalaria juncea (sunn hump) performance assessed as injury at 1.12 kg/ha post-emergence treatment measured after 2 weeks. The format is ADME, organism-based. The settings on record: in vivo, other, 336 h.
The test system of series [10] is Crotalaria juncea. Description: Herbicidal tolerance in Crotalaria juncea (sunn hump) performance assessed as plant hight at 1.12 kg/ha post-emergence treatment measured after 2 weeks. The format is ADME, organism-based. The settings on record: in vivo, other, 336 h.
Series [11] concerns Crotalaria juncea. Description: Herbicidal tolerance in Crotalaria juncea (sunn hump) performance assessed as stand count at 1.12 kg/ha post-emergence treatment measured after 2 weeks. The format is ADME, organism-based. The note with it: in vivo, other, 336 h.
Series [12] has as its system Cyperus esculentus. As to the kind of experiment: Herbicidal activity against Cyperus esculentus (yellow nutsedge) in sunn hemp assessed as weed control at 1.12 kg/ha post-emergence treatment measured after 2 weeks. The format is functional.

As for `Cc1cnc(C2=NC(=O)C(C)(C(C)C)N2)c(C(=O)O)c1` (configuration not stated) [IMAZAPIC], the Activity was 110 cm in the series on Crotalaria juncea [1]; 93% in the series on Eragrostis cilianensis [2]; 91% in the series on Cyperus esculentus [3]; 76% with Digitaria sanguinalis [4]; 8.18 /m2 with Crotalaria juncea [5]; 9% in the series with Crotalaria juncea [6].

As to `CCC(CC)Nc1c([N+](=O)[O-])cc(C)c(C)c1[N+](=O)[O-]` [PENDIMETHALIN], the Activity with Eragrostis cilianensis [7] is reported as 94%; in the series with Digitaria sanguinalis [8], 78%; in the series with Crotalaria juncea [9] it was 7%; with Crotalaria juncea [10] it was 108 cm; in the series with Crotalaria juncea [11] it was 8.18 /m2; with Cyperus esculentus [12] it was 63%.
